Test results: US7029713B2, “Peptide extract of lupine and pharmaceutical or cosmetic or nutritional composition comprising the same” (Laboratoires Pharmascience, priority 1999, dated 2006)

Columns and labels:
[1] = target: T1, recombinant human MMP-9 (Homo sapiens, UniProt P14780); test: Anti-MMP-9 activity, DQ-gelatin fluorimetry; type: biochemical
T1 construct: purchased R&D SYSTEMS
Protocol: (§1) The anti-MMP-2 and anti-MMP-9 activity of the test products was measured in vitro in a biochemical model of the screening type, based on the use of a purified human MMP-2 and of a recombinant human MMP-9 and of the substrate for the latter, gelatin conjugated to fluorescein (EnzChek™ gelatinase/collagenase kit, MOLECULAR PROBES).
The recombinant human MMP-9 came from R&D SYSTEMS.
(§2) The DQ-gelatin purified from porcine skin and conjugated to fluorescein was supplied in the EnzChek™ gelatinase/collagenase kit (MOLECULAR PROBES).
The reaction buffer for studying the activity of MMP-9 (RBf2) consisted of 50 mM of Tris-HCl, 0.05% (w/v) of Brij 35 and 5 mM of CaCl2, pH 7.4.
(§3) 1,10-Phenanthroline was solubilized in the reaction buffers RBf1 and RBf2. It was tested at 8 and 80 μg/ml.
(§4) Peptide extracts A, B and C were solubilized in the reaction buffers RBf1 and RBf2. They were tested at 0.01; 0.1 and 1% (w/v). […]
(§5) After 24 hours, the signal corresponding to the degradation of the DQ-gelatin was measured by fluorimetry (excitation: 485 nm and emission: 595 nm) For each sample, the value obtained for the “samples without enzyme” was subtracted.
(§6) The results were expressed as fluorescence units per sample and as percentage variation relative to the control group. […]

[2] = target: T2, purified human MMP-2 (Homo sapiens, UniProt P08253); test: Anti-MMP-2 activity, DQ-gelatin fluorimetry; type: biochemical
T2 construct: purchased BOEHRINGER MANNHEIM; host or cells: purified from human fibrosarcoma (natural, not recombinant)
T2 sequence (P08253 110-660): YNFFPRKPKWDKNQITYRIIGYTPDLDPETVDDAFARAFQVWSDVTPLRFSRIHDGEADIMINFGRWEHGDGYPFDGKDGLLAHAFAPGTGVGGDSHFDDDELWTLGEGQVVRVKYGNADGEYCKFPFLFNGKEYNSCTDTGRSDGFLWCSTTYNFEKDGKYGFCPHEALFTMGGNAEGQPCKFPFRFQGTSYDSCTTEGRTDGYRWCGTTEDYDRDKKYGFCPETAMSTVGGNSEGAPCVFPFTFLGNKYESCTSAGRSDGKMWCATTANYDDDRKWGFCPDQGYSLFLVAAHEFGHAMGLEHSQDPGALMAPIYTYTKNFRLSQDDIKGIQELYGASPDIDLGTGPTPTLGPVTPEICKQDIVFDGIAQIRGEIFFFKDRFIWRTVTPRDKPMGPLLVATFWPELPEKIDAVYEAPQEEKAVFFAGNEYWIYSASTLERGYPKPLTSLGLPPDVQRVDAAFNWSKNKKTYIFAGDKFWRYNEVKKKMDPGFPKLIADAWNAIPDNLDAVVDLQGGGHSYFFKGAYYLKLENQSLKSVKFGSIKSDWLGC
Protocol: as §1
The MMP-2 purified from human fibrosarcoma came from BOEHRINGER MANNHEIM.
as §2
The reaction buffer for studying the activity of MMP-2 (RBf1) consisted of 50 mM of Tris-HCl, 0.05% (w/v) of Triton X100 and 5 mM of CaCl2, pH 7.5.
as §3, §4, §5, §6

[3] = test system: MMP-3 in human fibroblasts irradiated with UVA rays; test: Amount of MMP-3 secreted by UVA-irradiated human dermal fibroblasts (ELISA); type: cell-based; details: Fibroblast, light or radiation study, 80 μg/ml, read-out: inhibition of the secretion of MMP-3 by the irradiated fibroblasts
Protocol: (§7) The study was carried out on human dermal fibroblasts in monolayer culture. The cells were pre-incubated for 1 hour at 37° C. in the presence of the reference products and of the test product. Then, the cells were irradiated with a single dose of 10 J/cm^2 of UVA, in the presence of the product to be tested and of the reference products.
(§8) Immediately after irradiation, the cells were incubated for 48 h at 37° C., still in the presence of the product to be tested and of the reference products.
(§9) The various MMPs are tested in the culture media using specific ELISA kits (Amersham).
(§10) 1,10-Phenanthroline, which is a nonspecific inhibitor of MMPs, and was tested at 80 μg/ml, was used as a reference product.
(§11) A 10 μg/ml retinoic acid+10 ng/ml EGF mixture was used for its abilities to induce TIMP1 (TIMP1, Tissue Inhibitor of MMP, physiological inhibitor of MMPs).
(§12) A stock solution containing 10% (w/v) of lupin peptides was prepared in deionized water. Using this solution, dilutions were prepared in the fibroblast culture medium. The peptide extract of lupin was tested at 0.5; 1 and 2% (v/v).
(§13) Irradiated and nonirradiated control cultures were incubated in parallel, in the absence of the reference products and of the test product. […]
(§14) They are given in the table below and the results are expressed as % relative to the “irradiated cells” group.

[4] = test system: MMP-1 in human fibroblasts irradiated with UVA rays; test: Amount of MMP-1 secreted by UVA-irradiated human dermal fibroblasts (ELISA); type: cell-based; details: Fibroblast, light or radiation study, 80 μg/ml, read-out: inhibition of the secretion of MMP-1 by the irradiated fibroblasts
Protocol: as §7, §8, §9, §10, §11, §12, §13, §14

[5] = test system: MMP-9 in human fibroblasts irradiated with UVA rays; test: Amount of MMP-9 secreted by UVA-irradiated human dermal fibroblasts (ELISA); type: cell-based; details: Fibroblast, light or radiation study, 80 μg/ml, read-out: inhibition of the secretion of MMP-9 by the irradiated fibroblasts
Protocol: as §7, §8, §9, §10, §11, §12, §13, §14

[6] = test system: purified collagenase (type III, fraction A); test: Anticollagenase activity in organotypic model of human skin sections (Masson trichrome, morphology and image analysis); type: biochemical; set-up: key to Enzymatic digestion (morphological observation): 0: zero enzymatic digestion; +: weak enzymatic digestion; ++: average enzymatic digestion; +++: strong enzymatic digestion; details: phosphoramidon 10^−3 M; collagenase 50 IU/ml, 3 hours 37° C.
Protocol: The anticollagenase activity of a test product can be studied in vitro in an organotypic model of human skin. The principle of the test is as follows: application of purified collagenase to sections is accompanied by degradation of the endogenous collagen fibers. The collagen fibers are then stained with Masson trichrome. The digestion of the endogenous collagen fibers by the purified collagenase is evaluated qualitatively by morphological observation and quantitatively by image analysis. A product which has anticollagenase activity will partially or totally preserve the integrity of the collagen fibers placed in the presence of the enzyme.
Three dilutions were tested: 0.01; 0.1 and 1% (v/v). […]
After incubation, the sections were rinsed with the incubation medium and stained with Masson trichrome. The activity of the enzyme in the presence and absence of the extract, of the ethanol or of the reference product was evaluated by microscopic observation and scored according to the following scheme:
The activity of the collagenase in the presence and absence of the test products, of the ethanol or of the reference product was evaluated by image analysis. […] The results were expressed as a percentage of intact collagen fibers per optical field. […]
For the reference product (directly taken up in the vehicle), the percentage inhibition is calculated using the following formula: […]

T1 sequence (P14780 94-707): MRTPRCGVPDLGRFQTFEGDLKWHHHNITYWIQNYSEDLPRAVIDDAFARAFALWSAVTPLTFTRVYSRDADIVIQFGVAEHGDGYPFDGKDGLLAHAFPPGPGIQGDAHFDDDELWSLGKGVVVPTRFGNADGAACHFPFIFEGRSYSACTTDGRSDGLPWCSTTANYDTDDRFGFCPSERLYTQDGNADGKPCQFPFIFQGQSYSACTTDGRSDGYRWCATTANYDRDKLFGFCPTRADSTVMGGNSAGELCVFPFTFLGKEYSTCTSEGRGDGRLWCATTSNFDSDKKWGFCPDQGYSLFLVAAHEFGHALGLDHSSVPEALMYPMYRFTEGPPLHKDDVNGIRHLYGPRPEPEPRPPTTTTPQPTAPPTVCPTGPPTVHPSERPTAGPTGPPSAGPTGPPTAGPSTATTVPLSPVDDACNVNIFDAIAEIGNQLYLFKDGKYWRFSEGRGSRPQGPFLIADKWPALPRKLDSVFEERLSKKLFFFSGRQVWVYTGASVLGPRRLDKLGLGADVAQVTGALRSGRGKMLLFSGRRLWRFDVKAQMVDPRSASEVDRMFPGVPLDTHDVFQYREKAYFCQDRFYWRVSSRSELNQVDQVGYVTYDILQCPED

Compound	inhibition at 8 µg/mL ([1]; 8 μg/ml) [%]	inhibition at 80 µg/mL ([1]; 80 μg/ml) [%]	inhibition at 8 µg/mL ([2]; 8 μg/ml) [%]	inhibition at 80 µg/mL ([2]; 80 μg/ml) [%]	inhibition at 80 µg/mL [3] [%]	inhibition at 80 µg/mL [4] [%]	inhibition at 80 µg/mL [5] [%]	% inhibition of the collagenase activity (image analysis) [6] [%]	Enzymatic digestion (morphological observation) [6]
c1cnc2c(c1)ccc1cccnc12 [1,10-phenanthroline]	80	76	32	73	97	99	92	–	–
CC(C)C[C@H](NP(=O)(O)O[C@@H]1O[C@@H](C)[C@H](O)[C@@H](O)[C@H]1O)C(=O)N[C@@H](Cc1c[nH]c2ccccc12)C(=O)O [Phosphoramidon]	–	–	–	–	–	–	–	16	+
